Test results reported in PubChem BioAssay (NCI).
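Protocol summary: plate cells (96-well), add compound at 5 concentrations, incubate 48 h, interpolate endpoints linearly. Here, GI50 denotes the concentration required for 50% inhibition of growth. TGI marks complete inhibition of growth.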

Assays:
Experiment in all cases: NCI-60 cell line screen, 48 h
[1] = tested on: SF-539 CNS
[2] = tested on: HCC-2998 colon
[3] = tested on: UACC-62 melanoma
[4] = tested on: BT-549 breast
[5] = tested on: MDA-MB-435
[6] = tested on: CCRF-CEM leukemia
[7] = tested on: OVCAR-8 ovarian
[8] = tested on: OVCAR-4 ovarian
[9] = tested on: PC-3 prostate
[10] = tested on: RPMI-8226 leukemia
[11] = tested on: UACC-257 melanoma
[12] = tested on: T-47D breast
[13] = tested on: A549 NSCLC
[14] = tested on: HCT-15 colon
[15] = tested on: IGROV1 ovarian
[16] = tested on: NCI-H23 lung
[17] = tested on: HOP-92 NSCLC
[18] = tested on: HS 578T breast
[19] = tested on: SR leukemia
[20] = tested on: HL-60(TB) leukemia
[21] = tested on: MDA-MB-231 breast
[22] = tested on: 786-0 renal
[23] = tested on: SK-MEL-2 melanoma
[24] = tested on: K-562 leukemia
[25] = tested on: DU-145 prostate
[26] = tested on: HCT-116 colon
[27] = tested on: U251 CNS
[28] = tested on: ACHN renal
[29] = tested on: CAKI-1 renal
[30] = tested on: M14 melanoma
[31] = tested on: MALME-3M melanoma
[32] = tested on: SK-OV-3 ovarian
[33] = tested on: HOP-62 NSCLC
[34] = tested on: A498 renal
[35] = tested on: SK-MEL-28 melanoma
[36] = tested on: COLO 205 colon
[37] = tested on: OVCAR-5 ovarian
[38] = tested on: MCF7 breast
[39] = tested on: HT29 colon
[40] = tested on: SW-620 colon
[41] = tested on: NCI/ADR-RES ovarian
[42] = tested on: NCI-H460 lung
[43] = tested on: KM12 colon
[44] = tested on: UO-31 renal
[45] = tested on: NCI-H522 lung
[46] = tested on: SN12C renal
[47] = tested on: NCI-H226 lung
[48] = tested on: TK-10 renal
[49] = tested on: SNB-19 CNS
[50] = tested on: OVCAR-3 ovarian
[51] = tested on: SNB-75 CNS
[52] = tested on: SK-MEL-5 melanoma
[53] = tested on: SF-268 CNS
[54] = tested on: RXF 393 renal
[55] = tested on: LOX IMVI melanoma
[56] = tested on: MOLT-4 leukemia

N#CCCN1C/C(=C/c2ccccc2)C(=O)/C(=C/c2ccccc2)C1
GI50 [1]: 2.2 µM | TGI [1]: 4.98 µM | GI50 [2]: 1.74 µM | TGI [2]: 3.2 µM | GI50 [3]: 1.73 µM | TGI [3]: 3.44 µM | GI50 [4]: 2.14 µM | TGI [4]: 4.23 µM | GI50 [5]: 2.13 µM | TGI [5]: 5.89 µM | GI50 [6]: 0.498 µM | TGI [6]: > 100 µM | GI50 [7]: 2.23 µM | TGI [7]: 6.03 µM | GI50 [8]: 3.1 µM | TGI [8]: 13.1 µM | GI50 [9]: 2.6 µM | TGI [9]: 7.9 µM | GI50 [10]: 0.295 µM | TGI [10]: 1.16 µM | GI50 [11]: 1.91 µM | TGI [11]: 4.64 µM | GI50 [12]: 7.43 µM | TGI [12]: 21.4 µM | GI50 [13]: 3.8 µM | TGI [13]: 16.2 µM | GI50 [14]: 1.45 µM | TGI [14]: 3.54 µM | GI50 [15]: 3.66 µM | TGI [15]: 12.7 µM | GI50 [16]: 3.46 µM | TGI [16]: 12.6 µM | GI50 [17]: 12.3 µM | TGI [17]: 29.4 µM | GI50 [18]: 2.96 µM | TGI [18]: 13.3 µM | GI50 [19]: 0.289 µM | TGI [19]: > 100 µM | GI50 [20]: 2.97 µM | TGI [20]: 21.2 µM | GI50 [21]: 2.75 µM | TGI [21]: 7.06 µM | GI50 [22]: 1.92 µM | TGI [22]: 4.07 µM | GI50 [23]: 2.62 µM | TGI [23]: 5.87 µM | GI50 [24]: 0.744 µM | TGI [24]: > 100 µM | GI50 [25]: 5.86 µM | TGI [25]: 18.1 µM | GI50 [26]: 0.397 µM | TGI [26]: 1.88 µM | GI50 [27]: 1.48 µM | TGI [27]: 3.12 µM | GI50 [28]: 1.83 µM | TGI [28]: 3.4 µM | GI50 [29]: 3.16 µM | TGI [29]: 11.1 µM | GI50 [30]: 2.12 µM | TGI [30]: 4.63 µM | GI50 [31]: 2.91 µM | TGI [31]: 6.69 µM | GI50 [32]: 4.09 µM | TGI [32]: 14.2 µM | GI50 [33]: 2.61 µM | TGI [33]: 6.03 µM | GI50 [34]: 13.4 µM | TGI [34]: 26.8 µM | GI50 [35]: 1.79 µM | TGI [35]: 3.54 µM | GI50 [36]: 2.59 µM | TGI [36]: 6.42 µM | GI50 [37]: 2.55 µM | TGI [37]: 6.6 µM | GI50 [38]: 0.395 µM | TGI [38]: 2.35 µM | GI50 [39]: 1.81 µM | TGI [39]: 3.91 µM | GI50 [40]: 0.647 µM | TGI [40]: 2.47 µM | GI50 [41]: 3.44 µM | TGI [41]: 31.7 µM | GI50 [42]: 1.92 µM | TGI [42]: 3.91 µM | GI50 [43]: 1.59 µM | TGI [43]: 3.12 µM | GI50 [44]: 2.01 µM | TGI [44]: 6.08 µM | GI50 [45]: 1.9 µM | TGI [45]: 3.56 µM | GI50 [46]: 2.15 µM | TGI [46]: 4.79 µM | GI50 [47]: 18.1 µM | TGI [47]: 50.3 µM | GI50 [48]: 2.97 µM | TGI [48]: 7.76 µM | GI50 [49]: 3.19 µM | TGI [49]: 13.6 µM | GI50 [50]: 2.63 µM | TGI [50]: 6.04 µM | GI50 [51]: 7.43 µM | TGI [51]: 21.3 µM | GI50 [52]: 1.65 µM | TGI [52]: 3.07 µM | GI50 [53]: 2.94 µM | TGI [53]: 8.88 µM | GI50 [54]: 1.66 µM | TGI [54]: 3.38 µM | GI50 [55]: 1.09 µM | TGI [55]: 2.47 µM | GI50 [56]: 2.95 µM | TGI [56]: 17.9 µM
